From ChEMBL document CHEMBL1126738, “(3SR,4aRS,6RS,8aRS)-6-[2-(1H-tetrazol-5-yl)ethyl]decahydroisoquinoline-3 - carboxylic acid: a structurally novel, systemically active, competitive AMPA receptor antagonist” (J Med Chem, 1993)

Target: Glutamate [NMDA] receptor
Experiment: Inhibitory activity against NMDA receptor using [3H]-CGS- 19755 as radioligand
Assay type: protein-complex assay

IC50: 12.1 µM
Compound: O=C(O)[C@@H]1C[C@H]2C[C@@H](CCc3nn[nH]n3)CC[C@H]2CN1 [TEZAMPANEL ANHYDROUS]
